From PubChem BioAssay AID256 (DTP/NCI, 2004)
“And” between values parts separate entries of the source, which are not always exact repeats. Identical values can stand only once. Inconclusive results and toxic doses are left out. Rule for the calls: active = survival T/C of 150% or more; inactive = T/C below 125% in these data. Starred links: 1 amine or outer side, 2 acyl side, 3 side chain; linkers in the order of their positions; H or OH if unused. Non-standard residues stand in square brackets, D forms with d. Residues, ends and D or L forms follow the SMILES beside them. *: point of attachment. X2 = CCC(=O)CC1CC(C)CC(C(=O)[*:2])N1[*:1]; X1 = CCCCCCCCC(C)C(=O)*; Aib = CC(C)(N)C(=O)O; X3 = CC(CN(C)CCO)N*

Test system: CD2F1 mice, L1210 leukemia ip, survival T/C
Assay: NCI In Vivo Anticancer Drug Screen. Data for tumor model L1210 Leukemia (intraperitoneal) in CD2F1 (CDF1) mice
Settings: higher = longer survival
Method in brief: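 Ratio T/C, where T is the treated-group value and C the vehicle-dosed control value, from mice implanted with a transplantable tumor.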

[1] = endpoint: mean survival time, dose: 100.0 mg/kg/injection, schedule: Q04DX002 (ip), vehicle: saline with Tween-80
[2] = endpoint: mean survival time, dose: 100.0 mg/kg/injection, schedule: Q04DX003 (ip), vehicle: saline with Tween-80
[3] = endpoint: mean survival time, dose: 200.0 mg/kg/injection, schedule: Q04DX003 (ip), vehicle: saline with Tween-80
[4] = endpoint: mean survival time, dose: 400.0 mg/kg/injection, schedule: Q04DX003 (ip), vehicle: saline with Tween-80
[5] = endpoint: mean survival time, dose: 25.0 mg/kg/injection, schedule: Q01DX009 (ip), vehicle: saline with Tween-80
[6] = endpoint: mean survival time, dose: 50.0 mg/kg/injection, schedule: Q01DX009 (ip), vehicle: saline with Tween-80
[7] = endpoint: mean survival time, dose: 100.0 mg/kg/injection, schedule: Q01DX009 (ip), vehicle: saline with Tween-80
[8] = endpoint: mean survival time, dose: 200.0 mg/kg/injection, schedule: Q01DX009 (ip), vehicle: saline with Tween-80
[9] = endpoint: mean survival time, dose: 400.0 mg/kg/injection, schedule: Q01DX009 (ip), vehicle: saline with Tween-80

Measured: T/C

[I][Pt+2][I].[NH-]c1ccc(F)cc1.[NH-]c1ccc(F)cc1
inactive: endpoint: mean survival time, dose: 3.13 mg/kg/injection, schedule: Q04DX003 (ip), vehicle: distilled water + Tween-80 108 % of control | endpoint: mean survival time, dose: 6.25 mg/kg/injection, schedule: Q04DX003 (ip), vehicle: distilled water + Tween-80 108 % of control | endpoint: mean survival time, dose: 12.5 mg/kg/injection, schedule: Q04DX003 (ip), vehicle: distilled water + Tween-80 98 % of control | endpoint: mean survival time, dose: 25.0 mg/kg/injection, schedule: Q04DX003 (ip), vehicle: distilled water + Tween-80 101 % of control | endpoint: mean survival time, dose: 50.0 mg/kg/injection, schedule: Q04DX003 (ip), vehicle: distilled water + Tween-80 108 % of control | endpoint: mean survival time, dose: 100.0 mg/kg/injection, schedule: Q04DX003 (ip), vehicle: distilled water + Tween-80 87 % of control

O=C1OC(=O)C2C(c3ccccc3)=C3C(=C(c4ccccc4)C12)c1cccc2cccc3c12 (stereo unspecified)
inactive: [1] 94 % of control | endpoint: mean survival time, dose: 200.0 mg/kg/injection, schedule: Q04DX002 (ip), vehicle: saline with Tween-80 97 % of control | endpoint: mean survival time, dose: 400.0 mg/kg/injection, schedule: Q04DX002 (ip), vehicle: saline with Tween-80 94 % of control

Clc1ccc(Nc2ccccc2)cc1
inactive: endpoint: mean survival time, dose: 100.0 mg/kg/injection, schedule: Q01DX001 (ip), vehicle: other 90 % of control | endpoint: mean survival time, dose: 200.0 mg/kg/injection, schedule: Q01DX001 (ip), vehicle: other 90 % of control | endpoint: mean survival time, dose: 400.0 mg/kg/injection, schedule: Q01DX001 (ip), vehicle: other 90 % of control

CCOC(=O)C(C(C)=O)C(=O)/C=C/c1ccccc1 (stereo unspecified)
inactive: [2] 98 % of control | [3] 103 % of control | [4] 97 % of control

O=C(Nc1ccc(C(=O)O)cc1)OCc1ccccc1
inactive: [2] 100 % of control | [3] 101 % of control | [4] 91 % of control

CC(C)(CBr)COC(=O)Nc1cccc2ccccc12
inactive: endpoint: mean survival time, dose: 12.5 mg/kg/injection, schedule: Q01DX009 (ip), vehicle: saline with Tween-80 91 % of control | [5] 91 % of control | [6] 95 % of control

c1ccc(-c2ccc(C3=NN(c4ccccc4)C(c4ccccc4)C3NC3CCCCC3)cc2)cc1 (stereo unspecified)
inactive: endpoint: mean survival time, dose: 12.5 mg/kg/injection, schedule: Q01DX009 (ip), vehicle: other 100 % of control | endpoint: mean survival time, dose: 25.0 mg/kg/injection, schedule: Q01DX009 (ip), vehicle: other 104 % of control | endpoint: mean survival time, dose: 50.0 mg/kg/injection, schedule: Q01DX009 (ip), vehicle: other 98 % of control | endpoint: mean survival time, dose: 100.0 mg/kg/injection, schedule: Q01DX009 (ip), vehicle: other 106 % of control | endpoint: mean survival time, dose: 200.0 mg/kg/injection, schedule: Q01DX009 (ip), vehicle: other 98 % of control

CC(=O)Nc1cc(S(=O)(=O)O)cc(N)c1O
inactive: endpoint: mean survival time, dose: 100.0 mg/kg/injection, schedule: Q01DX001 (ip), vehicle: Klucel (hydroxypropylcellulose) (HPC) 114 % of control | endpoint: mean survival time, dose: 200.0 mg/kg/injection, schedule: Q01DX001 (ip), vehicle: Klucel (hydroxypropylcellulose) (HPC) 103 % of control | endpoint: mean survival time, dose: 400.0 mg/kg/injection, schedule: Q01DX001 (ip), vehicle: Klucel (hydroxypropylcellulose) (HPC) 106 % of control

O=S(=O)(Oc1ccccc1)c1ccc(Cl)cc1
inactive: [7] 95 % of control | [2] 98 % of control | [8] 98 % of control | [3] 96 % of control | [9] 98 % of control | [4] 102 % of control

Cc1sc(Cc2ccccc2)nc1-c1ccc(N=Cc2ccc(N(CCOS(C)(=O)=O)CCOS(C)(=O)=O)cc2)cc1
inactive: [5] 107 % of control | [6] 93 % of control

C1CN2CN3CCN(CN1C3)C2
inactive: endpoint: mean survival time, dose: 12.5 mg/kg/injection, schedule: Q01DX009 (ip), vehicle: saline 97 % of control | endpoint: mean survival time, dose: 25.0 mg/kg/injection, schedule: Q01DX009 (ip), vehicle: saline 109 % of control | endpoint: mean survival time, dose: 50.0 mg/kg/injection, schedule: Q01DX009 (ip), vehicle: saline 105 % of control | endpoint: mean survival time, dose: 100.0 mg/kg/injection, schedule: Q01DX009 (ip), vehicle: saline 118 % of control

Cc1cc(C)c(NC(=O)CC#N)c(C)c1
inactive: [5] 88 % of control | [6] 86 % of control | [7] 93 % of control

Cc1cc2c(Cl)ncnc2[nH]1
inactive: endpoint: median survival time, dose: 25.0 mg/kg/injection, schedule: Q01DX005 (ip), vehicle: saline 95 % of control | endpoint: median survival time, dose: 50.0 mg/kg/injection, schedule: Q01DX005 (ip), vehicle: saline 90 % of control | endpoint: median survival time, dose: 100.0 mg/kg/injection, schedule: Q01DX005 (ip), vehicle: saline 101 % of control

N#Cc1ccc2cn[nH]c2c1
inactive: [7] 98 % of control | [8] 96 % of control | [9] 92 % of control

CC(=O)OC1CCC2(C)C(CCC3C2CCC2(C)C3CC3OC(CCC(C)O)C(C)C32)C1 (stereo unspecified)
inactive: [1] 86 % of control

C(=NCCN=Cc1ccccc1)c1ccccc1
inactive: [7] 97 % of control | [8] 97 % of control | [9] 96 % of control

CN(Cc1cnc2nc(N)nc(N)c2n1)c1ccc(C(=O)NC(CCC(=O)O)C(=O)NC(CCC(=O)O)C(=O)O)cc1 (stereo unspecified)
active: endpoint: mean survival time, dose: 25.0 mg/kg/injection, schedule: Q01DX009 (ip), vehicle: sodium bicarbonate 167 % of control
inactive: endpoint: mean survival time, dose: 1.0 mg/kg/injection, schedule: Q01DX009 (ip), vehicle: sodium bicarbonate 105 % of control | endpoint: mean survival time, dose: 2.0 mg/kg/injection, schedule: Q01DX009 (ip), vehicle: sodium bicarbonate 100 % of control | endpoint: mean survival time, dose: 5.0 mg/kg/injection, schedule: Q01DX009 (ip), vehicle: sodium bicarbonate 102 % of control

CC(C)(OC(=O)C(NC=O)C(C)(C)S)OC(=O)C(NC=O)C(C)(C)S (stereo unspecified)
inactive: [7] 101 % of control | [8] 101 % of control | [9] 101 % of control

N/C(=C\C(=O)c1ccccc1)c1ccccc1
inactive: [2] 94 % of control | [3] 107 % of control | [4] 100 % of control

O=C(/C(=C/c1ccccc1)CN1CCOCC1)c1ccccc1
inactive: endpoint: mean survival time, dose: 25.0 mg/kg/injection, schedule: Q01DX009 (ip), vehicle: Klucel (hydroxypropylcellulose) (HPC) 101 % of control | endpoint: mean survival time, dose: 50.0 mg/kg/injection, schedule: Q01DX009 (ip), vehicle: Klucel (hydroxypropylcellulose) (HPC) 105 % of control | endpoint: mean survival time, dose: 100.0 mg/kg/injection, schedule: Q01DX009 (ip), vehicle: Klucel (hydroxypropylcellulose) (HPC) 91 % of control

O=c1[nH]c(=O)n(C2CC(O)C(CO)O2)cc1/C=C/c1cccc([N+](=O)[O-])c1 (stereo unspecified)
inactive: endpoint: mean survival time, dose: 6.25 mg/kg/injection, schedule: Q01DX005 (ip), vehicle: distilled water + Tween-80 98 % of control | endpoint: mean survival time, dose: 12.5 mg/kg/injection, schedule: Q01DX005 (ip), vehicle: distilled water + Tween-80 97 % of control | endpoint: mean survival time, dose: 25.0 mg/kg/injection, schedule: Q01DX005 (ip), vehicle: distilled water + Tween-80 95 % of control | endpoint: mean survival time, dose: 50.0 mg/kg/injection, schedule: Q01DX005 (ip), vehicle: distilled water + Tween-80 93 % of control | endpoint: mean survival time, dose: 100.0 mg/kg/injection, schedule: Q01DX005 (ip), vehicle: distilled water + Tween-80 94 % of control

CCCCCCCCC(C)C(=O)N1CCCC1C(=O)N1C(CC(=O)CC)CC(C)CC1C(=O)NC(C)C(=O)NC(C)(C)C(=O)NC(C)(C)C(=O)NC(C(=O)NC(C)C(=O)NC(C)(C)C(=O)NC(C)(C)C(=O)NC(C)CN(C)CCO)C(C)CC (stereo unspecified) (X1-P[X2]A[Aib][Aib]IA[Aib][Aib]-X3; configuration not given here)
inactive: endpoint: mean survival time, dose: 0.15 mg/kg/injection, schedule: Q01DX009 (ip), vehicle: Klucel (hydroxypropylcellulose) (HPC) 110 % of control | endpoint: mean survival time, dose: 0.31 mg/kg/injection, schedule: Q01DX009 (ip), vehicle: Klucel (hydroxypropylcellulose) (HPC) 111 % of control and 112 % of control | endpoint: mean survival time, dose: 0.62 mg/kg/injection, schedule: Q01DX009 (ip), vehicle: Klucel (hydroxypropylcellulose) (HPC) 115 % of control and 104 % of control | endpoint: mean survival time, dose: 1.25 mg/kg/injection, schedule: Q01DX009 (ip), vehicle: Klucel (hydroxypropylcellulose) (HPC) 122 % of control and 108 % of control | endpoint: mean survival time, dose: 2.5 mg/kg/injection, schedule: Q01DX009 (ip), vehicle: Klucel (hydroxypropylcellulose) (HPC) 115 % of control and 117 % of control | endpoint: mean survival time, dose: 5.0 mg/kg/injection, schedule: Q01DX009 (ip), vehicle: Klucel (hydroxypropylcellulose) (HPC) 103 % of control

[Cl][Pt+2][Cl].[NH-]C(CO)C([NH-])CO (stereo unspecified)
active: endpoint: median survival time, dose: 12.5 mg/kg/injection, schedule: Q04DX003 (ip), vehicle: distilled water + Tween-80 156 % of control
inactive: endpoint: median survival time, dose: 1.25 mg/kg/injection, schedule: Q04DX003 (ip), vehicle: water 102 % of control | endpoint: median survival time, dose: 2.5 mg/kg/injection, schedule: Q04DX003 (ip), vehicle: water 102 % of control | endpoint: median survival time, dose: 5.0 mg/kg/injection, schedule: Q04DX003 (ip), vehicle: water 115 % of control | endpoint: median survival time, dose: 20.0 mg/kg/injection, schedule: Q04DX003 (ip), vehicle: water 93 % of control

COc1ccc(N=C(C(=O)c2ccccc2)c2ccccc2)cc1
inactive: endpoint: mean survival time, dose: 100.0 mg/kg/injection, schedule: Q01DX001 (ip), vehicle: saline with Tween-80 95 % of control | endpoint: mean survival time, dose: 200.0 mg/kg/injection, schedule: Q01DX001 (ip), vehicle: saline with Tween-80 93 % of control | endpoint: mean survival time, dose: 400.0 mg/kg/injection, schedule: Q01DX001 (ip), vehicle: saline with Tween-80 100 % of control
